# Assay results as given in paper PMC12122562, “Phase 1 studies of the indenoisoquinolines LMP776 and LMP744 in patients with solid tumors and lymphomas” (Cancer Chemotherapy and Pharmacology, 2025).
# Where two headings read alike, the source gives them in different places.
# Legend:
# Type in all cases: in vivo, human
# RAD51 = assay: qIF of paired tumor biopsies: nuclear RAD51 foci
# Excerpt: (§1) The LMP744 protocol collected pre-treatment (baseline) and on-treatment paired biopsies from patients in the expansion cohort. Core needle tumor biopsies (18-gauge) were collected and flash-frozen at point of collection per NCI SOPs (https://dctd.cancer.gov/ResearchResources/biomarkers/docs/par/SOP340507_Biopsy_Frozen.pdf) as described to preserve labile post-translational modifications such as phosphorylation. Biopsy pairs were thawed in formalin, fixed in paraffin embedded together with control tissues following NCI SOP340550 (https://dctd.cancer.gov/ResearchResources/biomarkers/DDR3/SOP340550_Biopsy_Section_Testis_Jejunum_Controls.pdf). TOP1 and TOP1cc were measured with a cocktail containing custom-conjugated rabbit monoclonal antibody anti-TOP1-DIG (Abcam, EPR5376 (2)) and mouse monoclonal antibody anti-TOP1cc (clone 1.1A [34, 35], EMD Millipore) that were detected with reporter secondary antibodies AlexaFluor-647 IgG fraction monoclonal mouse anti-digoxin (Jackson ImmunoResearch) and goat/anti-mouse AlexaFluor-488, respectively. Phosphorylated KAP1 (pKAP1, phosphorylated at S824) was measured using custom-conjugated pKAP1-pS824-DNP (Abcam, EPR5248) and detected with AlexaFluor-488 conjugated with anti-dinitrophenyl-KLH rabbit IgG Antibody Fraction (DNP-488, ThermoFisher). […]
# pNBS1 = assay: qIF of paired tumor biopsies: nuclear pNBS1; conditions: 6 patients at MTD; assay values never ≥ 4% NAP
# Excerpt: as §1
# [1] = Plasma pharmacokinetics of LMP744, non-compartmental; conditions: for half-life / AUC(0-inf) / AUC(0-t) / Cmax / Tmax: human, plasma, intravenous
# Method: Blood was collected during cycle 1 in the LMP744 study on C1D1 at the end of infusion (EOI), then again at 0.25, 0.5, 1, 2, 4, and 6 h after EOI. Blood was also collected prior to infusion and at EOI on days 2–5 during cycle 1, then again at 1 week (168 h) after C1D1 EOI. Samples were collected in EDTA tubes with 2 mL of blood per sample. Samples were centrifuged and plasma was stored at − 70 °C. Samples were analyzed using a validated LC–MS or LC–MS/MS method for each IIQ as previously described. Plasma-time data were analyzed using WinNonlin (Pharsight, Mountain View, CA). AUC values were calculated by non-compartmental analysis and end-of-infusion concentrations were measured on days 1 and 5 of cycle 1. Sample collection and analysis of LMP776 pharmacokinetics were performed as previously described.
# [2] = tested on: advanced, refractory solid tumors or lymphomas; assay: Phase 1 trial of LMP776: tumor response (RECIST v1.1), cycles completed
# Method: Tumor responses were evaluated by serial CT scans according to RECIST v1.1 criteria. CT scans were performed every other cycle during the first year, then every 3 cycles after the first year. Toxicities associated with LMP776 were evaluated according to criteria specified in CTCAE version 4.0; toxicities associated with LMP744 were evaluated according to the criteria specified in CTCAE version 4.03 (on or before March 31, 2018) or version 5.0 (on or after April 1, 2018). Criteria for all versions can be found at https://ctep.cancer.gov/protocolDevelopment/electronic_applications/ctc.htm. Any patient who received a dose of either agent was considered eligible for toxicity evaluation.
compound,measurement,setting,value
COc1cc2c3c(n(CCCNCCO)c(=O)c2cc1OC)-c1cc2c(cc1C3=O)OCO2 [LMP744],Patients with significant drug-induced increases in nuclear RAD51,"RAD51; MTD, C1D2, p = 0.0091 for group effect",4 of 6
same,Nuclear RAD51 response,"RAD51; patient 29, MTD, C1D2",at least 5 % of cells with ≥ 5 foci
same,pNBS1 pharmacodynamic response,pNBS1,failed to elicit a pNBS1 pharmacodynamic response
same,Cl,"[1]; DL1, 6 mg/m2, n=1",42.3 L/h/m2
same,Vss,"[1]; DL1, 6 mg/m2, n=1",1033.0 L/m2
same,Cl,"[1]; DL2, 12 mg/m2, n=1",74.0 L/h/m2
same,Vss,"[1]; DL2, 12 mg/m2, n=1",1369.0 L/m2
same,Cl,"[1]; DL3, 24 mg/m2, n=3",77.9 (11.2) L/h/m2
same,Vss,"[1]; DL3, 24 mg/m2, n=3",1312.7 L/m2
same,Cl,"[1]; DL4, 48 mg/m2, n=1",72.7 L/h/m2
same,Vss,"[1]; DL4, 48 mg/m2, n=1",828.0 L/m2
same,Cl,"[1]; DL5, 96 mg/m2, n=1",51.7 L/h/m2
same,Vss,"[1]; DL5, 96 mg/m2, n=1",836.6 L/m2
same,Cl,"[1]; DL6 (MTD), 190 mg/m2, n=16",59.1 (26.6) L/h/m2
same,Vss,"[1]; DL6 (MTD), 190 mg/m2, n=16",845.0 L/m2
same,Cl,"[1]; DL7, 260 mg/m2, n=10",73.8 (35.4) L/h/m2
same,Vss,"[1]; DL7, 260 mg/m2, n=10",867.8 L/m2
same,half-life,"[1]; 6 mg/m2, DL1, 6 mg/m2, n=1, read-out: t1/2 (converted)",23.4 h
same,half-life,"[1]; 12 mg/m2, DL2, 12 mg/m2, n=1, read-out: t1/2 (converted)",19.1 h
same,half-life,"[1]; 24 mg/m2, DL3, 24 mg/m2, n=3, read-out: t1/2 (converted)",14 h
same,half-life,"[1]; 48 mg/m2, DL4, 48 mg/m2, n=1, read-out: t1/2 (converted)",15.5 h
same,half-life,"[1]; 96 mg/m2, DL5, 96 mg/m2, n=1, read-out: t1/2 (converted)",16.2 h
same,half-life,"[1]; 190 mg/m2, DL6 (MTD), 190 mg/m2, n=16, read-out: t1/2 (mean half-life) (converted)",13.6 h
same,half-life,"[1]; 190 mg/m2, MTD (DL6, 190 mg/m^2, n = 16), read-out: Half-life, range",7.2 to 23.4 h
same,half-life,"[1]; 190 mg/m^2, patient 8, Hodgkin lymphoma, read-out: Longest drug half-life measured in this study (converted)",23.4 h
same,half-life,"[1]; 260 mg/m2, DL7, 260 mg/m2, n=10, read-out: t1/2 (converted)",10.9 h
same,AUC(0-inf),"[1]; DL1, 6 mg/m2, n=1",0.142 µg·h/mL
same,AUC(0-t),"[1]; DL1, 6 mg/m2, n=1",0.0917 µg·h/mL
same,Cmax,"[1]; DL1, 6 mg/m2, n=1",0.0484 µg/mL
same,Tmax,"[1]; DL1, 6 mg/m2, n=1",1 h
same,AUC(0-inf),"[1]; DL2, 12 mg/m2, n=1",0.162 µg·h/mL
same,AUC(0-t),"[1]; DL2, 12 mg/m2, n=1",0.117 µg·h/mL
same,Cmax,"[1]; DL2, 12 mg/m2, n=1",0.0696 µg/mL
same,Tmax,"[1]; DL2, 12 mg/m2, n=1",1 h
same,AUC(0-inf),"[1]; DL3, 24 mg/m2, n=3",0.313 µg·h/mL
same,AUC(0-t),"[1]; DL3, 24 mg/m2, n=3",0.234 µg·h/mL
same,Cmax,"[1]; DL3, 24 mg/m2, n=3",0.0781 µg/mL
same,Tmax,"[1]; DL3, 24 mg/m2, n=3",1.6 h
same,AUC(0-inf),"[1]; DL4, 48 mg/m2, n=1",0.8 µg·h/mL
same,AUC(0-t),"[1]; DL4, 48 mg/m2, n=1",0.632 µg·h/mL
same,Cmax,"[1]; DL4, 48 mg/m2, n=1",0.446 µg/mL
same,Tmax,"[1]; DL4, 48 mg/m2, n=1",1 h
same,AUC(0-inf),"[1]; DL5, 96 mg/m2, n=1",1.86 µg·h/mL
same,AUC(0-t),"[1]; DL5, 96 mg/m2, n=1",1.39 µg·h/mL
same,Cmax,"[1]; DL5, 96 mg/m2, n=1",0.433 µg/mL
same,Tmax,"[1]; DL5, 96 mg/m2, n=1",1 h
same,AUC(0-inf),"[1]; DL6 (MTD), 190 mg/m2, n=16",4.65 µg·h/mL
same,AUC(0-t),"[1]; DL6 (MTD), 190 mg/m2, n=16",3.77 µg·h/mL
same,Cmax,"[1]; DL6 (MTD), 190 mg/m2, n=16",1.57 µg/mL
same,Tmax,"[1]; DL6 (MTD), 190 mg/m2, n=16",1 h
same,AUC(0-inf),"[1]; DL7, 260 mg/m2, n=10",4.1 µg·h/mL
same,AUC(0-t),"[1]; DL7, 260 mg/m2, n=10",3.58 µg·h/mL
same,Cmax,"[1]; DL7, 260 mg/m2, n=10",1.51 µg/mL
same,Tmax,"[1]; DL7, 260 mg/m2, n=10",1 h
same,Dependence of half-life on dose,[1]; in vivo,did not vary with dose level
same,Systemic exposure (AUC) versus dose level,[1]; in vivo,increased linearly with dose level
COc1cc2c3c(n(CCCn4ccnc4)c(=O)c2cc1OC)-c1cc2c(cc1C3=O)OCO2 [LMP776],Objective responses,"[2]; RECIST v1.1, n = 34",no objective responses were measured
same,Best response,[2]; in vivo,stable disease
same,Longest duration of SD,"[2]; patient 45, pancreatic cancer",9 cycles
